pIC50: −log10 of the molar value.
Legend:
mouse leukemia cell P388 = experiment: Proliferation inhibition activity against mouse leukemia cell (Thiazoyl Blue assay); assay type: cell-based; conditions: P388 cells, 24 hours culture with test compound, absorbance at 550 nm, read-out: 50% inhibitory concentration (IC₅₀)
Method: (2) Proliferation inhibition activity against mouse leukemia cell
100 µl portions of a cell culturing medium (10% fetal bovine serum-containing-RPMI-1640 medium) containing 3x10³ mouse leukemia cell (P388) were put in a 96-hole microplate, the cells were cultured under 5% CO₂ at 37°C for 24 hours, 10 µl each of test solutions containing test compounds respectively were added respectively, and the cells were further cultured under 5% CO₂ at 37°C for 24 hours. 10 µl portions of 0.5% Thiazoyl Blue were added to the culture broths, and incubation was carried out under 5% CO₂ at 37°C for 2 hours to carry out enzymatic reaction. 20% sodium dodecyl sulfate (SDS) was added to discontinue the reaction, incubation was further carried out at 37°C for 4 hours to dissolve the formed dye, and absorbance at 550 nm was measured and compared with the control group.

mouse tumor (P388) = experiment: Therapeutic effect against mouse tumor (P388); assay type: in vivo; conditions: P388, 10⁶ cancer cells inoculated i.p.
Description: (1) Therapeutic effect against mouse tumor (P388)

[1] = dose 1 mg/kg/injection i.p. once a day from 1st to 10th day
[2] = dose 3 mg/kg/injection i.p. once a day from 1st to 10th day
[3] = dose 10 mg/kg/injection i.p. once a day from 1st to 10th day
[4] = dose 30 mg/kg/injection i.p. once a day from 1st to 10th day
[5] = dose 100 mg/kg/injection i.p. once a day from 1st to 10th day

| SMILES | pIC50 (mouse leukemia cell P388) | further results |
| --- | --- | --- |
| NN1C(=O)c2c(c3c4cccc(O)c4n([C@@H]4O[C@H](CO)[C@@H](O)[C@H](O)[C@H]4O)c3c3[nH]c4c(O)cccc4c23)C1=O [Example 1] | > 7.52 | – |
| O=C1c2c(c3c4cccc(O)c4n([C@@H]4O[C@H](CO)[C@@H](O)[C@H](O)[C@H]4O)c3c3[nH]c4c(O)cccc4c23)C(=O)N1N(Cc1ccccc1)Cc1ccccc1 [Example 29] | 8.30 | – |
| CS(=O)(=O)NN1C(=O)c2c(c3c4cccc(O)c4n([C@@H]4O[C@H](CO)[C@@H](O)[C@H](O)[C@H]4O)c3c3[nH]c4c(O)cccc4c23)C1=O [Example 11] | > 7.59 | – |
| C=CCNN1C(=O)c2c(c3c4cccc(O)c4n([C@@H]4O[C@H](CO)[C@@H](O)[C@H](O)[C@H]4O)c3c3[nH]c4c(O)cccc4c23)C1=O [Example 28] | > 7.54 | – |
| NC(=O)NN1C(=O)c2c(c3c4cccc(O)c4n([C@@H]4O[C@H](CO)[C@@H](O)[C@H](O)[C@H]4O)c3c3[nH]c4c(O)cccc4c23)C1=O [Example 9] | 7.55 | – |
| O=CNN1C(=O)c2c(c3c4cccc(O)c4n([C@@H]4O[C@H](CO)[C@@H](O)[C@H](O)[C@H]4O)c3c3[nH]c4c(O)cccc4c23)C1=O [Example 5] | 6.55 | MST (mean survival number of days) (mouse tumor (P388); [1]): 16.8 ± 0.84 days; T/C (%) (MST of treatment group/MST of control x 100) (mouse tumor (P388); [1]): 137%; MST (mean survival number of days) (mouse tumor (P388); [2]): 17.8 ± 1.92 days; T/C (%) (MST of treatment group/MST of control x 100) (mouse tumor (P388); [2]): 145%; MST (mean survival number of days) (mouse tumor (P388); [3]): >26.2 ± 10.18 days; T/C (%) (MST of treatment group/MST of control x 100) (mouse tumor (P388); [3]): >213%; MST (mean survival number of days) (mouse tumor (P388); [4]): >23.4 ± 9.74 days; T/C (%) (MST of treatment group/MST of control x 100) (mouse tumor (P388); [4]): >190%; MST (mean survival number of days) (mouse tumor (P388); [5]): >36.4 ± 8.05 days; T/C (%) (MST of treatment group/MST of control x 100) (mouse tumor (P388); [5]): >296% |
| O=C1c2c(c3c4cccc(O)c4n([C@@H]4O[C@H](CO)[C@@H](O)[C@H](O)[C@H]4O)c3c3[nH]c4c(O)cccc4c23)C(=O)N1Nc1ccccn1 [Example 15] | 6.51 | – |
| NC(=S)NN1C(=O)c2c(c3c4cccc(O)c4n([C@@H]4O[C@H](CO)[C@@H](O)[C@H](O)[C@H]4O)c3c3[nH]c4c(O)cccc4c23)C1=O [Example 10] | 6.34 | – |
| NC(=O)C(=O)NN1C(=O)c2c(c3c4cccc(O)c4n([C@@H]4O[C@H](CO)[C@@H](O)[C@H](O)[C@H]4O)c3c3[nH]c4c(O)cccc4c23)C1=O [Example 17] | 7.36 | – |
| O=C(O)C=NN1C(=O)c2c(c3c4cccc(O)c4n([C@@H]4O[C@H](CO)[C@@H](O)[C@H](O)[C@H]4O)c3c3[nH]c4c(O)cccc4c23)C1=O [Example 2] | 6.54 | MST (mean survival number of days) (mouse tumor (P388); [1]): 15.8 ± 0.84 days; T/C (%) (MST of treatment group/MST of control x 100) (mouse tumor (P388); [1]): 128%; MST (mean survival number of days) (mouse tumor (P388); [2]): 17.8 ± 1.92 days; T/C (%) (MST of treatment group/MST of control x 100) (mouse tumor (P388); [2]): 145%; MST (mean survival number of days) (mouse tumor (P388); [3]): >26.4 ± 18.82 days; T/C (%) (MST of treatment group/MST of control x 100) (mouse tumor (P388); [3]): >245%; MST (mean survival number of days) (mouse tumor (P388); [4]): >42.2 ± 24.38 days; T/C (%) (MST of treatment group/MST of control x 100) (mouse tumor (P388); [4]): >343%; MST (mean survival number of days) (mouse tumor (P388); [5]): >47.2 ± 18.90 days; T/C (%) (MST of treatment group/MST of control x 100) (mouse tumor (P388); [5]): >384% |
| O=C1c2c(c3c4cccc(O)c4n([C@@H]4O[C@H](CO)[C@@H](O)[C@H](O)[C@H]4O)c3c3[nH]c4c(O)cccc4c23)C(=O)N1NCCO [Example 36] | 8.70 | – |
| O=C1c2c(c3c4cccc(O)c4n([C@@H]4O[C@H](CO)[C@@H](O)[C@H](O)[C@H]4O)c3c3[nH]c4c(O)cccc4c23)C(=O)N1NCc1cccc(O)c1 [Example 23] | > 7.60 | – |
| N#CCCNN1C(=O)c2c(c3c4cccc(O)c4n([C@@H]4O[C@H](CO)[C@@H](O)[C@H](O)[C@H]4O)c3c3[nH]c4c(O)cccc4c23)C1=O [Example 24] | 9.00 | – |
| CCC(=O)NN1C(=O)c2c(c3c4cccc(O)c4n([C@@H]4O[C@H](CO)[C@@H](O)[C@H](O)[C@H]4O)c3c3[nH]c4c(O)cccc4c23)C1=O [Example 12] | 7.38 | – |
| NC(=O)CNN1C(=O)c2c(c3c4cccc(O)c4n([C@@H]4O[C@H](CO)[C@@H](O)[C@H](O)[C@H]4O)c3c3[nH]c4c(O)cccc4c23)C1=O [Example 14] | > 7.57 | – |
| O=C(O)CCC=NN1C(=O)c2c(c3c4cccc(O)c4n([C@@H]4O[C@H](CO)[C@@H](O)[C@H](O)[C@H]4O)c3c3[nH]c4c(O)cccc4c23)C1=O [Example 3] | 7.19 | – |
| O=C1c2c(c3c4cccc(O)c4n([C@@H]4O[C@H](CO)[C@@H](O)[C@H](O)[C@H]4O)c3c3[nH]c4c(O)cccc4c23)C(=O)N1N1CCCC1 [Example 37] | 7.02 | – |
| CC(=O)NN1C(=O)c2c(c3c4cccc(O)c4n([C@@H]4O[C@H](CO)[C@@H](O)[C@H](O)[C@H]4O)c3c3[nH]c4c(O)cccc4c23)C1=O [Example 6] | 7.23 | – |
| CO[C@H]1[C@H](O)[C@@H](O)[C@H](n2c3c(Cl)cccc3c3c4c(c5c6cccc(Cl)c6[nH]c5c32)C(=O)N(N)C4=O)O[C@@H]1CO [Example 4, 6-N-aminorebeccamycin] | 7.02 | – |

Continued, in another order:

| pIC50 (mouse leukemia cell P388) | SMILES | further results |
| --- | --- | --- |
| 6.96 | NNC(=O)NN1C(=O)c2c(c3c4cccc(O)c4n([C@@H]4O[C@H](CO)[C@@H](O)[C@H](O)[C@H]4O)c3c3[nH]c4c(O)cccc4c23)C1=O [Example 22] | – |
| 6.52 | O=C(O)CNN1C(=O)c2c(c3c4cccc(O)c4n([C@@H]4O[C@H](CO)[C@@H](O)[C@H](O)[C@H]4O)c3c3[nH]c4c(O)cccc4c23)C1=O [Example 8] | – |
| 7.57 | CC(C)(C)OC(=O)NN1C(=O)c2c(c3c4cccc(O)c4n([C@@H]4O[C@H](CO)[C@@H](O)[C@H](O)[C@H]4O)c3c3[nH]c4c(O)cccc4c23)C1=O [Example 27] | – |
| 8.52 | COC(=O)NN1C(=O)c2c(c3c4cccc(O)c4n([C@@H]4O[C@H](CO)[C@@H](O)[C@H](O)[C@H]4O)c3c3[nH]c4c(O)cccc4c23)C1=O [Example 30] | – |
| 7.04 | CNN1C(=O)c2c(c3c4cccc(O)c4n([C@@H]4O[C@H](CO)[C@@H](O)[C@H](O)[C@H]4O)c3c3[nH]c4c(O)cccc4c23)C1=O [Example 7] | – |
| 6.96 | O=C(Nc1ccccc1)NN1C(=O)c2c(c3c4cccc(O)c4n([C@@H]4O[C@H](CO)[C@@H](O)[C@H](O)[C@H]4O)c3c3[nH]c4c(O)cccc4c23)C1=O [Example 33] | – |
| 7.96 | CC1(C)OC[C@@H]([C@@H](O)C(=O)NN2C(=O)c3c(c4c5cccc(O)c5n([C@@H]5O[C@H](CO)[C@@H](O)[C@H](O)[C@H]5O)c4c4[nH]c5c(O)cccc5c34)C2=O)O1 [Example 31] | – |
| 6.77 | O=C(NN1C(=O)c2c(c3c4cccc(O)c4n([C@@H]4O[C@H](CO)[C@@H](O)[C@H](O)[C@H]4O)c3c3[nH]c4c(O)cccc4c23)C1=O)c1ccccn1 [Example 35] | – |
| 6.66 | O=C1c2c(c3c4cccc(O)c4n([C@@H]4O[C@H](CO)[C@@H](O)[C@H](O)[C@H]4O)c3c3[nH]c4c(O)cccc4c23)C(=O)N1NC(=O)C(F)(F)F [Example 13] | – |
| 7.32 | O=C1c2c(c3c4cccc(O)c4n([C@@H]4O[C@H](CO)[C@@H](O)[C@H](O)[C@H]4O)c3c3[nH]c4c(O)cccc4c23)C(=O)N1NC1=NCCN1 [Example 25] | – |
| 7.72 | O=C(NN1C(=O)c2c(c3c4cccc(O)c4n([C@@H]4O[C@H](CO)[C@@H](O)[C@H](O)[C@H]4O)c3c3[nH]c4c(O)cccc4c23)C1=O)c1ccccc1 [Example 34] | – |
